Laboratory results taken from patent publication US7589212B2, “Human protein tyrosine phosphatase inhibitors and methods of use” (Procter & Gamble Company, priority 2006, dated 2009).

What was measured:
[1] = target: HPTPβ (Homo sapiens, UniProt P23467); assay: HPTPβ inhibition (IC50); type: biochemical
[2] = target: T1, PTP1B (Homo sapiens, UniProt P18031); assay: PTP1B inhibition (IC50); type: biochemical
T1 sequence (P18031 1-435): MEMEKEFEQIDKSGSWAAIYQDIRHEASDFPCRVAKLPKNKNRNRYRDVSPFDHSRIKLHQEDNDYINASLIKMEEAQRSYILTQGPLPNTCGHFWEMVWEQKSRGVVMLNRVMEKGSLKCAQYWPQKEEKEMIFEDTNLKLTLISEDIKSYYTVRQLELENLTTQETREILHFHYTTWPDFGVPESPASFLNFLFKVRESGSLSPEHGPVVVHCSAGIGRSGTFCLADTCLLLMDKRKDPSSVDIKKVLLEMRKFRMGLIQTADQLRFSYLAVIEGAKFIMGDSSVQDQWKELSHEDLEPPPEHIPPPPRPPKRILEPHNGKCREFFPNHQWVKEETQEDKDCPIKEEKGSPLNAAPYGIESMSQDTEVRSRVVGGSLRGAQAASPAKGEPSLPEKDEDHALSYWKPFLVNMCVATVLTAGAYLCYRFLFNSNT

Chain of HPTPβ (P23467 23-1997): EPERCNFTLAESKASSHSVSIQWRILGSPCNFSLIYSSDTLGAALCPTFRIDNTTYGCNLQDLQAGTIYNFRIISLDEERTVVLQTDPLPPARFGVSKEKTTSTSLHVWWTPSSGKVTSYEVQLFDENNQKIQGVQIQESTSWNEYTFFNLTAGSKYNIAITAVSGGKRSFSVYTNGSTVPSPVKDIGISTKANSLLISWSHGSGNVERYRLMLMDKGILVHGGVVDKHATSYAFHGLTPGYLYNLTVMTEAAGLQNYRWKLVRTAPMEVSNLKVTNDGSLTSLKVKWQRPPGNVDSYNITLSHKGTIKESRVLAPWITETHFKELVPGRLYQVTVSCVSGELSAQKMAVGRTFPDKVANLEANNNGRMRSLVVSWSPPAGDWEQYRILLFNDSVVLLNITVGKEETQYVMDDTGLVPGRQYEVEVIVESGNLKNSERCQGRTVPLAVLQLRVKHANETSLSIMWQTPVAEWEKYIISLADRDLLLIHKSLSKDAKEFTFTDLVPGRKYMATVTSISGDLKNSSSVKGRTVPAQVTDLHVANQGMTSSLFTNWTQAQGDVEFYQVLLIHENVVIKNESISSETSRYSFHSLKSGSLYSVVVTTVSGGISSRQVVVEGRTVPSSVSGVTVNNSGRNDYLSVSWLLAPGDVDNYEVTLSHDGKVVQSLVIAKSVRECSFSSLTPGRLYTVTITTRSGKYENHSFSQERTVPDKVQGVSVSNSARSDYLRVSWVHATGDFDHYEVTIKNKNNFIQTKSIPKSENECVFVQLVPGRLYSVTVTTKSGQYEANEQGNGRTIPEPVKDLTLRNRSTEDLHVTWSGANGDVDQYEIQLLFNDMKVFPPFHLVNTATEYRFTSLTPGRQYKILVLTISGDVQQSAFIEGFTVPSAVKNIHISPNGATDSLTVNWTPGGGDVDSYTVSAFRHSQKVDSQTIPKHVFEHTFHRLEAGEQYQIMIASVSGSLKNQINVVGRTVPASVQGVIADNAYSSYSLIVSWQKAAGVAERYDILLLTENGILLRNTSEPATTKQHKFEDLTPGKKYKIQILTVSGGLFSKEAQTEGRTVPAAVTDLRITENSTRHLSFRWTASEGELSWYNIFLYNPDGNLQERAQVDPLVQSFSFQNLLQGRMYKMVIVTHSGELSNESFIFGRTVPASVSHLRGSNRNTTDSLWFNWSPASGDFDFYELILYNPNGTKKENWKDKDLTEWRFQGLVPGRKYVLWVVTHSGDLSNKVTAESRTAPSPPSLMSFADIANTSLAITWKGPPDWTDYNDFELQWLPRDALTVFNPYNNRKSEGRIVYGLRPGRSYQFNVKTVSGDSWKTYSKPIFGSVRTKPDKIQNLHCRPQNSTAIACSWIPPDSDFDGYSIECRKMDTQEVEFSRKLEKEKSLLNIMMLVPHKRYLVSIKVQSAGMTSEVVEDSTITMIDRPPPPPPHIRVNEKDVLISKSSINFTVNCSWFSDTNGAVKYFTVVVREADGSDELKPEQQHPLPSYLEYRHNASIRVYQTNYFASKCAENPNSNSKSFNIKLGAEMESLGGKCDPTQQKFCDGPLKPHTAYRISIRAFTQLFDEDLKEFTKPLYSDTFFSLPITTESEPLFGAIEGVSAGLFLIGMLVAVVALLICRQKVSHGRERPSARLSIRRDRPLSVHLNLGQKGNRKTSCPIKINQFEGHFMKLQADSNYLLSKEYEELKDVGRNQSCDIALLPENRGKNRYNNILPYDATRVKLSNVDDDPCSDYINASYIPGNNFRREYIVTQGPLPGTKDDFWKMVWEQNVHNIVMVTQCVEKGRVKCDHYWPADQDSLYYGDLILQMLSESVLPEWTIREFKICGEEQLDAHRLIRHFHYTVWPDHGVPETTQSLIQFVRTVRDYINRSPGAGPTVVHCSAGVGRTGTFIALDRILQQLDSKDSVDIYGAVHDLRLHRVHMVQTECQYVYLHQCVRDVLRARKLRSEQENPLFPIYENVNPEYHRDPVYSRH

## O=S(=O)(O)Nc1ccc(C[C@H](Nc2nnc(Cc3ccccc3)s2)c2csc(-c3cccs3)n2)cc1 [4-((S)-2-(5-Benzyl-1,3,4-thiadiazol-2-ylamino)-2-(2-(thiophen-2-yl)thiazol-4-yl)ethyl)phenylsulfamic acid]
[1]
  IC50: 0.6 nM
[2]
  IC50: 3860 nM

## Cc1nc(Cc2nnc(N[C@@H](Cc3ccc(NS(=O)(=O)O)cc3)c3csc(-c4cccs4)n3)s2)cs1 [4-((S)-2-(5-((2-Methylthiazol-4-yl)methyl)-1,3,4-thiadiazol-2-ylamino)-2-(2-(thiophen-2-yl)thiazol-4-yl)ethyl)phenylsulfamic acid]
[1]
  IC50: 0.009 nM
[2]
  IC50: 580 nM

## CCCc1nnc(N[C@@H](Cc2ccc(NS(=O)(=O)O)cc2)c2csc(-c3cccs3)n2)s1 [4-((S)-2-(5-Propyl-1,3,4-thiadiazol-2-ylamino)-2-(2-(thiophen-2-yl)thiazol-4-yl)ethyl)phenylsulfamic acid]
[1]
  IC50: 0.2 nM
[2]
  IC50: 4710 nM

## O=S(=O)(O)Nc1ccc(C[C@H](Nc2nnc(-c3ccccc3)s2)c2csc(-c3ccccc3)n2)cc1 [(S)-4-(2-(5-Phenyl-1,3,4-thiadiazol-2-ylamino)-2-(2-phenylthiazol-4-yl)ethyl)-phenylsulfamic acid]
[1]
  IC50: 46 nM
[2]
  IC50: 3700 nM

## COC(=O)Cc1nnc(N[C@@H](Cc2ccc(NS(=O)(=O)O)cc2)c2csc(-c3cccs3)n2)s1 [4-((S)-2-(5-((Methoxycarbonyl)methyl)-1,3,4-thiadiazol-2-ylamino)-2-(2-(thiophen-2-yl)thiazol-4-yl)ethyl)phenylsulfamic acid]
[1]
  IC50: 2 nM
[2]
  IC50: 1550 nM

## Cc1nnc(N[C@@H](Cc2ccc(NS(=O)(=O)O)cc2)c2csc(-c3ccccc3)n2)s1 [(S)-4-(2-(5-methyl-1,3,4-thiadiazol-2-ylamino)-2-(2-phenylthiazol-4-yl)ethyl)phenylsulfamic acid]
[1]
  IC50: 3 nM
[2]
  IC50: 1400 nM
